# Assay results published in patent publication US20110318281A1, “Lactobacillus Salivarius SG-M6 for Improving Oral Bacterial Groups and Health Care Compositions Thereof” (SYNGEN BIOTECH CO., LTD., priority 2010, published 2011).
# What was measured:
# [1] = test system: Actinomyces viscosus (ATCC 15987); assay: Disc agar diffusion test; assay type: cell-based; conditions: 6 mm paper disc, 37, 24 hours, mean±S.D. (n=3)
# Protocol: (§1) Lactobacillus salivarius SG-M6 were cultured in liquid medium. MRS medium was used in this embodiment. The bacteria were cultured at 30-37 for 15-24 hours. The fermentation broth was concentrated into 30-fold of original concentration, dialyzed by Spectra/Por®Dialysis Membrane (MWCO:3500, Spectrum Laboratories Inc, CA) for 48 hours, and diluted into various concentrations according to experimental requirements. […] Above four pathogens strains were purchased from Bioresource Collection and Research Center of Food Industry Research and Development Institute in Taiwan or ATCC. […] The diameter of sterile paper disc was 6 mm. The positive bacterial inhibition effect was determined by bacterial inhibition zone over 6 mm in diameter. Otherwise, it was defined as negative bacterial inhibition effect. Cultural condition was under the temperature of 37 for 24 hours. […] The inhibition zone values were shown as mean±S.D. (n=3).
# [2] = test system: Streptococcus sanguis (ATCC 49295); assay: Disc agar diffusion test; assay type: cell-based; conditions: 6 mm paper disc, 37, 24 hours, mean±S.D. (n=3)
# Protocol: as §1
# [3] = test system: Porphyromonas gingivalis (ATCC 33277); assay: Disc agar diffusion test; assay type: cell-based; conditions: 6 mm paper disc, 37, 24 hours, mean±S.D. (n=3)
# Protocol: as §1
# [4] = test system: Streptococcus mutans (ATCC 25175); assay: Disc agar diffusion test; assay type: cell-based; conditions: 6 mm paper disc, 37, 24 hours, mean±S.D. (n=3)
# Protocol: as §1
# [5] = test system: artificially induced periodontal disease (ligature wire, Streptococcus mutans); assay: Evaluation of therapeutic effect for animal periodontal disease; assay type: in vivo, Balb/c mice; conditions: treatment groups; for periodontal pocket improvement percentage (percentage of improving individual): Mann-Whitney test vs tMT
# Protocol: (§2) This trial included treatment groups and control groups. The treatment groups of Lactobacillus salivarius SG-M6 were divided into 6 groups as follows: 6 groups of dialyzed fermentation product concentrate of Lactobacillus salivarius SG-M6 included 15-fold, 10-fold, 5-fold, 4-fold, 2-fold, and 1-fold (unconcentrated fermentation broth). Two control groups included the treatment of 0.267 mg/mL of tetracycline and distilled water.
# Twelve of 8-week-old female Balb/c mice were selected for each group (Table 3). […] After diagnosis of diseased tissue by chief dentists, they were administered with different concentrations of Lactobacillus salivarius SG-M6 fermentation product, live Lactobacillus salivarius SG-M6, 1 mL of 0.267 mg/mL tetracycline or distilled water every day. The pathological symptoms were recorded. Wire was removed at the beginning of the treatment and periodontal pathogen inoculation was terminated. At day 4, 8, 12, and 16 after wire removal, mice periodontal pocket depth was examined. 3 mice from each group were killed for blood sampling and samples were collected for histological analysis.
# (§3) Control group was used as a standard to examine individuals in each group by Mann-Whitney test. Subjects with significant difference were defined as improving individuals. (number of improving Subject/number of total subject in group)×100%=improvement percentage of periodontal pocket depth.
# (§4) Experimental data were shown as mean±S.D. The statistical variation of treatment group and control group of mice periodontal pocket were performed by One-Way ANOVA and Dunnett multiple post hoc comparison in longitudinal study, and by One-Way ANOVA and LSD multiple post hoc comparison in cross-sectional study. Besides, Mann-Whitney test was used for examining the number of periodontal pocket improving individuals. The p value of statistical significance level was 0.05.
# [6] = test system: artificially induced periodontal disease (ligature wire, Streptococcus mutans); assay: Evaluation of preventive effect for animal periodontal disease; assay type: in vivo, Balb/c mice; conditions: prevention groups; for periodontal pocket improvement percentage (percentage of improving individual): Mann-Whitney test vs pMT
# Protocol: as §2
# Twelve of 8-week-old female Balb/c mice were selected for each group (Table 2). The mice were administered with various concentrations of Lactobacillus salivarius SG-M6 fermentation product, 1 mL of 0.267 mg/mL tetracyccline or distilled water. […] Their pathological symptoms observed and recorded until sacrificing all animals. Until the control group (feeding with distilled water, mock-treated group) showing gum swelling and dental plaque appearance diagnosed by chief dentists, the ligature wire was removed and inoculation of dental pathogen was stopped. At day 4, 8, 12, and 16 after wire removal, mice periodontal pocket depth was examined, 3 mice from each group were killed for blood sampling, and samples were collected for histological analysis.
# as §3, §4
smiles,measurement,setting,value
"CN(C)[C@@H]1C(O)=C(C(N)=O)C(=O)[C@@]2(O)C(O)=C3C(=O)c4c(O)cccc4[C@@](C)(O)[C@H]3C[C@@H]12 [Tetracycline, tetracycline]",inhibition zone,[1],48.2 ± 2.4^ mm
same,inhibition zone,[2],25.9 ± 1.2^ mm
same,inhibition zone,[3],33.4 ± 2.2^ mm
same,inhibition zone,[4],29.7 ± 2.0^ mm
same,periodontal pocket improvement percentage (percentage of improving individual),[5]; Day 4,30%
same,periodontal pocket depth,"[5]; Day 4, Table 13, comparison with day 4",1.05 ± 0.64 mm
same,periodontal pocket depth,"[5]; Day 4, compared with tMT",1.05 ± 0.64 mm
same,periodontal pocket improvement percentage (percentage of improving individual),[5]; Day 8,20%
same,periodontal pocket depth,"[5]; Day 8, Table 13, comparison with day 4",0.89 ± 0.44 mm
same,periodontal pocket depth,"[5]; Day 8, compared with tMT",0.89 ± 0.44 mm
same,periodontal pocket improvement percentage (percentage of improving individual),[5]; Day 12,47%
same,periodontal pocket depth,"[5]; Day 12, Table 13, comparison with day 4",0.63 ± 0.37 mm
same,periodontal pocket depth,"[5]; Day 12, compared with tMT",0.63 ± 0.37 mm
same,periodontal pocket improvement percentage (percentage of improving individual),[5]; Day 16,33%
same,periodontal pocket depth,"[5]; Day 16, Table 13, comparison with day 4",0.61 ± 0.34 mm
same,periodontal pocket depth,"[5]; Day 16, compared with tMT",0.48 ± 0.33 mm
same,periodontal pocket improvement percentage (percentage of improving individual),[6]; Day 4,62%
same,periodontal pocket depth,"[6]; Day 4, Table 11, comparison with day 4",0.84 ± 0.50 mm
same,periodontal pocket depth,"[6]; Day 4 after wire removal, compared with pMT",0.84 ± 0.50 mm
same,periodontal pocket improvement percentage (percentage of improving individual),[6]; Day 8,50%
same,periodontal pocket depth,"[6]; Day 8, Table 11, comparison with day 4",0.70 ± 0.34 mm
same,periodontal pocket depth,"[6]; Day 8, compared with pMT",0.70 ± 0.34 mm
same,periodontal pocket improvement percentage (percentage of improving individual),[6]; Day 12,71%
same,periodontal pocket depth,"[6]; Day 12, Table 11, comparison with day 4",0.65 ± 0.26 mm
same,periodontal pocket depth,"[6]; Day 12, compared with pMT",0.56 ± 0.26 mm
same,periodontal pocket improvement percentage (percentage of improving individual),[6]; Day 16,100%
same,periodontal pocket depth,"[6]; Day 16, Table 11, comparison with day 4",0.49 ± 0.25 mm
same,periodontal pocket depth,"[6]; Day 16, compared with pMT",0.49 ± 0.25 mm
